Data on 42 compounds can be found in PubChem BioAssay (NCI).

Experiment in all cases: NCI anticancer screen, dose series, 48 h
Test [1] relates to KM20L2 colon.
The subject of test [2] is RXF-631 renal.
Test [3] concerns HOP-18 NSCLC.
Test [4] deals with SNB-78 CNS.
Test [5] deals with DMS 273 small cell lung.
For test [6], the system named is DMS 114 small cell lung.
For test [7], the system named is MDA-N.
The subject of test [8] is XF 498 CNS.
In test [9] the test system is M19-MEL melanoma.

Values joined by “and” are separate entries in the source; they are usually repeats but may differ in a detail not shown here. Equal values may be shown once.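 All cell lines were grown in 96-well plates and treated with compound for 48 hours. GI50 marks 50% less growth. At the TGI there is no net growth.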

Turning to `COc1ccccc1NC(=O)CC(=O)n1nc(C)c(N=Nc2ccccc2Cl)c1C`, the TGI in test [1] is over 100 µM; in [2] it was over 31.6 µM; in test [3], over 100 µM; in [4] it was 57.1 µM; in [5], over 100 µM; in [6], over 100 µM. For the same compound, the TGI in test [7] was over 31.6 µM; in [8], over 100 µM; in test [9] it was over 100 µM.
Turning to `CC(=O)OC1=C2CC[C@@H]3C(CC[C@@]4(C)C3CC[C@@H]4OC(C)=O)[C@@]2(C)CC(C#N)C1=O` (stereo partly drawn), the TGI in test [1] was over 100 µM; in [4], 90.8 µM; in test [5] it was 74 µM; in test [6], 37.1 µM; in [8], 80.8 µM.
In test [7], `COc1c(C)c(OC)c(C(=O)CC(C)C)c(OC)c1C` registered a TGI of over 100 µM.
With `Cc1[nH]c2ccccc2c1C1=NO/C(=N\O)C(c2c(C)[nH]c3ccccc23)C1` (stereo not drawn), the TGI in test [1] was 50.5 µM; in [2], over 100 µM; in test [3], over 100 µM; in test [4], over 100 µM; in [5], over 100 µM; in test [6] it was over 100 µM. For the same compound, the TGI in [8] and in test [9] was over 100 µM each time.
As to `CN=C1CN=C(OP(=O)(N2CCOCC2)N2CCOCC2)c2cc(Cl)ccc2N1`, the TGI in test [1], in test [2], in test [3], in test [4], in test [5] and in [6] was over 100 µM in each case. Further, the TGI in test [8] and in [9] was over 100 µM throughout.
As for `COc1cc(/C=C2\NC(=O)C3Cc4c(OC)c(C)c(OC)c(OC)c4C2N3C)c(OC)c(C)c1OC` (stereo not drawn), the TGI in test [1], in test [2], in test [3], in test [4], in test [5] and in [6] was over 100 µM each time. The TGI in test [8] and in test [9] was over 100 µM each time.
Consider `Cc1ccc2[nH]c(O)c(N=Nc3ccccc3[N+](=O)[O-])c2c1`, for which the TGI in test [7] is over 100 µM.
In turn, `CN(/N=C/c1ccccc1O)c1ccc2ccccc2n1` registered a TGI in test [7] of over 100 µM.
With `O=S(=O)(O)n1ccnc1` (tested in a mixture with another compound), the TGI in test [7] is over 100 µM.
Regarding `CCOC(=O)CNC(=O)OCc1ccccc1`, the TGI in test [2], in test [4], in test [5], in test [6], in [8] and in [9] was over 100 µM in each case.
As to `[Co].[O-]c1cccnc1C=Nc1ccccc1.[OH3+]`, the GI50 in test [1], in test [4], in [5], in test [6], in [8] and in test [9] was over 100 µM in each case. Also, the TGI in test [1], in test [4], in [5], in test [6], in [8] and in [9] was over 100 µM throughout.
Turning to `Cc1ccc(/C=N/NS(=O)(=O)c2ccccc2)cc1C`, the TGI in test [1], in test [3], in test [4], in test [5], in test [6] and in [8] was over 100 µM in each case. This compound also showed a TGI in test [9] of over 100 µM.
For the compound `CCOC(=O)c1c(-c2ccc(OC)c(O)c2)c(C#N)c(=S)n(C2OC(COC(C)=O)C(OC(C)=O)C(OC(C)=O)C2OC(C)=O)c1-c1ccccc1` (stereo not drawn), in test [7], the GI50 is 16.8 µM and > 100 µM; the TGI was 37.8 µM and > 100 µM.
In test [7], `C=CCOc1ccc(N)c([N+](=O)[O-])c1` gave a TGI of over 100 µM.
As to `CC(=O)NCc1c(C(N)=O)ncn1Cc1ccccc1`, the TGI in [1], in test [2], in test [3], in [4], in test [5] and in test [6] was over 100 µM each time. Besides, the TGI in test [8] and in test [9] was over 100 µM each time.
For the compound `O=C(O)CCSC(=O)Nc1cccc2ccccc12`, the TGI in test [1], in [2], in test [3], in [4], in [5] and in test [6] was over 100 µM in each case. The TGI in test [8] and in test [9] was over 100 µM each time.
`COc1ccc(-c2oc3c(OC)c(OC)c(OC)c(O)c3c(=O)c2OC)cc1O`: the TGI was 26.1 µM in [1]; 35.8 µM in [2]; over 100 µM in test [4]; 16.3 µM in [5]; 0.0784 µM in test [6]; 0.68 µM in [8]. The compound also had a TGI in test [9] of 31.8 µM. For the same compound, the GI50 in test [4] and in test [9] was under 0.01 µM throughout.
For the compound `O=[N+]([O-])c1cc(I)cc(/C=N/NS(=O)(=O)c2ccc(Cl)cc2)c1O`, the TGI is over 100 µM in test [1]; 45.3 µM in test [2]; 45.5 µM in test [3]; 70.9 µM in [4]; 38.5 µM in [5]; 56.9 µM in [9].
For `CO/C=C(\Br)c1ccc2c(c1)OCO2`, the TGI in [2], in test [4], in [5], in test [6], in [8] and in test [9] was over 100 µM in each case.
Regarding `FC(F)(F)c1cc(NC(=S)N2c3ccccc3-n3cccc3C2c2cccnc2)cc(C(F)(F)F)c1` (stereo not drawn), in [7], the GI50 is 11.6 µM and the TGI stood at 32.5 µM.
In the case of `O=C(C=Nc1ccccc1S)c1ccco1`, the TGI in test [1] was found to be 34.7 µM; in test [2], 25.7 µM; in test [3], 37.1 µM; in [4], 32.7 µM; in test [5], 31.7 µM; in [6] it was 31 µM. Also, the TGI in [9] stood at 27 µM. The GI50 in [2] was 7.22 µM.
In the case of `O=C1OC(c2ccc(Cl)cc2)=N/C1=C\c1ccccc1`, the TGI in test [7] is over 100 µM.
Regarding `CC(=O)[CH-]C(C)=O.CC(=O)[CH-]C(C)=O.[Cl-].[O]=[V]`, the GI50 in test [3] was over 100 µM; in [5], 20.9 µM; in [6] it was 35.8 µM; in test [8], 17.8 µM. For the same compound, the TGI in test [3] is over 100 µM; in [5], 39.7 µM; in [6], over 100 µM; in [8], 66 µM.
As to `CN(C)CCN(C)C(=O)c1cccc2cccc(C(=O)O)c12`, the TGI in test [1], in [2], in test [3], in test [4], in test [5] and in test [6] was over 100 µM each time. The TGI in test [8] and in [9] was over 100 µM in each case.
On to `O=S1(=O)c2cc(S(=O)(=O)n3ccnc3)ccc2NC2=NCCCN21`, for which the TGI in test [1] is 41.7 µM; in test [3], over 100 µM; in test [6] it was 49.6 µM; in [9], over 100 µM.
In the case of `CC1OC(CC(=O)O)Cc2c1c(O)c1c(O)cc(-c3cc(=O)c4c(=O)c5c(c(=O)c=4c3=O)CC(CC(=O)O)OC5C)c(O)c1c2O` (stereo not drawn), the TGI in test [1] was over 68 µM; in test [3], 45.7 µM; in test [4], over 73 µM; in [5], 47 µM; in [6] it was 40 µM; in test [8], 34.5 µM. Further, in test [9], the TGI turned out to be 49 µM. Also, the GI50 in test [7] is 29.1 µM.
For `N#CC(C(=O)CCC(=O)Nc1cccc(C(F)(F)F)c1)c1ccccc1` (stereo not drawn), the TGI in test [1], in test [4], in test [5], in test [6], in test [8] and in [9] was over 100 µM each time.
Regarding `O=C(CC1(O)C(=O)Nc2ccccc21)c1ccc(Cl)cc1Cl` (stereo not drawn), the TGI in test [1], in test [2], in test [4], in test [5], in [6] and in [8] was over 100 µM in each case. The TGI in [9] is over 100 µM.
On to `FC(F)(F)c1nc(SCc2ccc(Cl)cc2)n[nH]1`, for which the TGI in test [7] is over 100 µM.
The compound `CCc1[nH]nc(C(N)=O)c1N=NN(C)C` displayed a TGI in test [7] of over 100 µM.
For `Brc1ccc(C=NC23CC4CC(CC(C4)C2)C3)cc1`, the TGI in test [1], in test [2], in test [3], in test [4], in test [5] and in test [6] was over 100 µM in each case. The TGI in [8] and in test [9] was over 100 µM each time.
Consider `COc1ccccc1NC(=O)C1=C(C)NC(C)=C(C(=O)Nc2ccccc2OC)C1c1ccccc1Cl`, for which the TGI in test [1], in [2], in test [3], in test [5], in test [6] and in test [8] was over 100 µM each time. The compound also displayed a TGI in test [9] of over 100 µM.
For the compound `COc1ccc(-c2cc(=O)c3cc(C)c(C)c(C(=O)O)c3o2)cc1`, the TGI is over 100 µM in test [1]; over 100 µM in test [2]; over 100 µM in [4]; over 100 µM in test [5]; 45.6 µM in test [6]; over 100 µM in test [8]. In addition, in test [9], the TGI was over 100 µM.
`C[C@]12CCc3nonc3C1CC[C@@H]1C2CC[C@@]2(C)C1CC[C@@H]2O` (stereo partly drawn): the TGI in test [1], in test [2], in test [3], in test [4], in test [5] and in test [6] was over 100 µM each time. Further, the TGI in [8] and in test [9] was over 100 µM each time.
For the compound `COc1ccc(C[C@]23CCC(=O)N2CCc2cc(OC)c(O)cc23)cc1O`, the TGI in test [1], in test [2], in [3], in [4], in [5] and in [6] was over 100 µM in each case. This compound yielded a TGI in [9] of over 100 µM.
Regarding `OCCN(CCO)c1nc(N2CCCCC2)c2nc(N(CCO)CCO)nc(N3CCCCC3)c2n1`, the TGI in [7] is over 100 µM.
Consider `C[N+](C)(C)C1CC([N+](C)(C)C)C2c3ccccc3C21` (stereo not drawn), for which the TGI in [1], in [2], in test [4], in test [5], in test [6] and in test [8] was over 100 µM in each case. This compound also had a TGI in test [9] of over 100 µM.
Take `C1C[OH+]CCNCC[OH+]CC[OH+]CCN1.N.[Cl-].[Pt+4]`: the GI50 is 22.8 µM in [1], 37.5 µM in test [3] and 28.7 µM in [5]. For the same compound, the TGI in test [1], in test [3] and in [5] was over 100 µM each time.
Turning to `CC[O-].CC[O-].O=C([CH-]C(=O)c1ccccc1)CCCCCCC(=O)[CH-]C(=O)c1ccccc1.[Ti+4]`, the GI50 in [1], in test [3], in test [4], in test [5], in [8] and in test [9] was over 100 µM throughout. The TGI in test [1], in [3], in test [4], in test [5], in [8] and in [9] was over 100 µM in each case.
Turning to `NNc1nc2ccccc2o1`, in test [7], the TGI was over 100 µM.
On to `O=C1NC2(CCCC2)C2CCCCC12O` (stereo not drawn), for which the TGI in test [2], in test [3], in test [4], in test [5], in test [6] and in test [8] was over 100 µM in each case. In [9], the TGI is over 100 µM.
`CCN(CC)CCCNc1n[n+]([O-])c2ccccc2[n+]1[O-]` returned a TGI in test [7] of over 100 µM.
